According to patent US20160272617A1, “SUBSTITUTED PHENYLALANINE DERIVATIVES” (BAYER PHARMA AKTIENGESELLSCHAFT, priority 2013, published 2016):
Where a name gives a salt, the structure may show the parent alone.

Legend:
human factor XIa = biological target: T1, human factor XIa (Homo sapiens, UniProt P03951); assay: Measurement of FXIa inhibition (fluorogenic peptide substrate Boc-Glu(OBzl)-Ala-Arg-AMC); format: biochemical; conditions: factor XIa from Kordia, 15 min preincubation, 30 min at 22° C., fluorescence
T1 construct: purchased Kordia
T1 sequence (P03951 388-625 limits assumed): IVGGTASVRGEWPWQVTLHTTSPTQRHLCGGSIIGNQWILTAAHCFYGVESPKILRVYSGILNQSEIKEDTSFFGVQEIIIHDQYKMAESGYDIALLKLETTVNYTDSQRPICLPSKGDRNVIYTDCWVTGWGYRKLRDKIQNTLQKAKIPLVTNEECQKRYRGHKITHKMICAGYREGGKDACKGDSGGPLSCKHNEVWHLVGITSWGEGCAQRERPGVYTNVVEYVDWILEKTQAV
T1 sequence (P03951 19-387 partner limits assumed): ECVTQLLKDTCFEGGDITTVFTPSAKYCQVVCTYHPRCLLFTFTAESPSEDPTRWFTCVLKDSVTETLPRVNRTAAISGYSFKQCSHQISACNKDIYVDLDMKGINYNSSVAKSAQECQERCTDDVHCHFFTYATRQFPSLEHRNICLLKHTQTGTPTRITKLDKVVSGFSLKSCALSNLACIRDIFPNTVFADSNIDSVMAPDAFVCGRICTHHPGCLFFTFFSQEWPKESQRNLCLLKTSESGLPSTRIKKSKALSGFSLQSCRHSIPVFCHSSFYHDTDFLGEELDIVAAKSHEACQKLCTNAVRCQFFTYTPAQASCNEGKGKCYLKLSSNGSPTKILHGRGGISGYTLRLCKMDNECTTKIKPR
Outline: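 Released AMC fluorescence (360/460 nm) read after 30 min at 22 °C. The reaction was started with Boc-Glu(OBzl)-Ala-Arg-AMC (10 μM stock) after a 15 min preincubation of the enzyme (0.45 nM stock) with compound (final 50 μM to 0.00013 μM).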

human and animal plasma = assay: Determination of anticoagulatory activity: activated partial thromboplastin time (aPTT) in plasma; conditions: concentration of test substance which brings about a 1.5-fold extension of the aPTT; plasma species not given
Outline: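 Citrated plasma (1:9, 0.11 M citrate; 4000 g, 15 min) from human or animal blood incubated with test compound and cephalin/kaolin PTT reagent for 3 min at 37° C.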

Row | Structure (SMILES) | IC50 (human factor XIa) [nM] | aPTT (human and animal plasma) [µmol/L]
1 | Cc1cc(C(=O)NC2CCNCC2)ccc1-c1ccc(C[C@H](NC(=O)[C@H]2CC[C@H](CN)CC2)C(=O)Nc2ccc3nc(C(F)(F)C(F)(F)C(F)(F)F)[nH]c3c2)cc1 [Example 85, 4′-[(2S)-2-({[trans-4-(Aminomethyl)cyclohexyl]carbonyl}amino)-3-{[2-(heptafluoropropyl)-1H-benzimidazol-6-yl]amino}-3-oxopropyl]-2-methyl-N-(piperidin-4-yl)biphenyl-4-carboxamide hydrochloride] | 16 | 0.12
2 | Cc1cc(C(=O)NC2CCNCC2)ccc1-c1ccc(C[C@H](NC(=O)[C@H]2CC[C@H](CN)CC2)C(=O)Nc2ccc3[nH]c(=O)[nH]c3c2)cc1 [Example 53, 4′-{(2S)-2-({[trans-4-(Aminomethyl)cyclohexyl]carbonyl}amino)-3-oxo-3-[(2-oxo-2,3-dihydro-1H-benzimidazol-5-yl)amino]propyl}-2-methyl-N-(piperidin-4-yl)biphenyl-4-carboxamide hydrochloride] | 16 | 0.16
3 | NC[C@H]1CC[C@H](C(=O)N[C@@H](Cc2ccc(-c3ccc(C(=O)NC4CCNCC4)cc3Cl)cc2)C(=O)Nc2ccc(-c3nn[nH]n3)cc2)CC1 [Example 11, 4′-[(2S)-2-({[trans-4-(Aminomethyl)cyclohexyl]carbonyl}amino)-3-oxo-3-{[4-(2H-tetrazol-5-yl)phenyl]amino}propyl]-2-chloro-N-(piperidin-4-yl)biphenyl-4-carboxamide hydrochloride] | 2.5 | 0.08
4 | Cc1cc(C(=O)N2CCNCC2)ccc1-c1ccc(C[C@H](NC(=O)[C@H]2CC[C@H](CN)CC2)C(=O)Nc2ccc3cn[nH]c3c2)cc1 [Example 5, trans-4-(Aminomethyl)-N-{(2S)-1-(1H-indazol-6-ylamino)-3-[2′-methyl-4′-(piperazin-1-ylcarbonyl)biphenyl-4-yl]-1-oxopropan-2-yl}cyclohexanecarboxamide hydrochloride] | 16 | 0.21
5 | Cc1cc(C(=O)N[C@H]2CC[C@H](O)CC2)ccc1-c1ccc(C[C@H](NC(=O)[C@H]2CC[C@H](CN)CC2)C(=O)Nc2ccc(-c3nc(C(F)(F)C(F)(F)CO)n[nH]3)cc2)cc1 [Example 110, 4′-[(2S)-2-({[trans-4-(Aminomethyl)cyclohexyl]carbonyl}amino)-3-oxo-3-({4-[3-(1,1,2,2-tetrafluoro-3-hydroxypropyl)-1H-1,2,4-triazol-5-yl]phenyl}amino)propyl]-N-(trans-4-hydroxycyclohexyl)-2-methylbiphenyl-4-carboxamide hydrochloride] | 1.8 | 0.11
6 | Cc1cc(C(=O)NCC2CCN(C)CC2)ccc1-c1ccc(C[C@H](NC(=O)[C@H]2CC[C@H](CN)CC2)C(=O)Nc2ccc(-c3nnc(C(F)(F)C(F)(F)C(=O)O)[nH]3)cc2)cc1 [Example 108, 3-[5-(4-{[(2S)-2-({[trans-4-(Aminomethyl)cyclohexyl]carbonyl}amino)-3-(2′-methyl-4′-{[(1-methylpiperidin-4-yl)methyl]carbamoyl}biphenyl-4-yl)propanoyl]amino}phenyl)-4H-1,2,4-triazol-3-yl]-2,2,3,3-tetrafluoropropanoic acid hydrochloride] | 1.9 | 0.07
7 | Cc1cc(C(=O)NC2CCNCC2)ccc1-c1ccc(C[C@H](NC(=O)[C@H]2CC[C@H](CN)CC2)C(=O)Nc2ccc(-c3nc(C(F)(F)F)n[nH]3)cc2)cc1 [Example 48, 4′-[(2S)-2-({[trans-4-(Aminomethyl)cyclohexyl]carbonyl}amino)-3-oxo-3-({4-[3-(trifluoromethyl)-1H-1,2,4-triazol-5-yl]phenyl}amino)propyl]-2-methyl-N-(piperidin-4-yl)biphenyl-4-carboxamide hydrochloride] | 2.7 | 0.1
8 | COCc1nnc(-c2ccc(NC(=O)[C@H](Cc3ccc(-c4ccc(C(=O)NC5CCNCC5)cc4C)cc3)NC(=O)[C@H]3CC[C@H](CN)CC3)cc2)[nH]1 [Example 54, 4′-[(2S)-2-({[trans-4-(Aminomethyl)cyclohexyl]carbonyl}amino)-3-({4-[3-(methoxymethyl)-4H-1,2,4-triazol-5-yl]phenyl}amino)-3-oxopropyl]-2-methyl-N-(piperidin-4-yl)biphenyl-4-carboxamide hydrochloride] | 16 | 0.24
9 | NC[C@H]1CC[C@H](C(=O)N[C@@H](Cc2ccc(-c3ccc(C(=O)N[C@H]4CC[C@H](O)CC4)c(F)c3)cc2)C(=O)Nc2ccc(-c3n[nH]c(C(F)(F)C(F)(F)C(=O)O)n3)cc2)CC1 [Example 112, 3-[3-(4-{[(2S)-2-({[trans-4-(Aminomethyl)cyclohexyl]carbonyl}amino)-3-{3′-fluoro-4′-[(trans-4-hydroxycyclohexyl)carbamoyl]biphenyl-4-yl}propanoyl]amino}phenyl)-1H-1,2,4-triazol-5-yl]-2,2,3,3-tetrafluoropropanoic acid hydrochloride] | 2 | 0.17
10 | Cc1cc(C(=O)NC2CCC(N(C)C)CC2)ccc1-c1ccc(C[C@H](NC(=O)[C@H]2CC[C@H](CN)CC2)C(=O)Nc2ccc(-c3nnc(C(F)(F)C(F)(F)C(F)(F)C(=O)O)[nH]3)cc2)cc1 (stereo partly drawn) [Example 148, 4-[5-(4-{[(2S)-2-({[trans-4-(Aminomethyl)cyclohexyl]carbonyl}amino)-3-(4′-{[4-(dimethylamino)cyclohexyl]carbamoyl}-2′-methylbiphenyl-4-yl)propanoyl]amino}phenyl)-4H-1,2,4-triazol-3-yl]-2,2,3,3,4,4-hexafluorobutanoic acid hydrochloride] | 1 | 0.07
11 | Cc1cc(C(=O)N[C@H]2CCNC2=O)ccc1-c1ccc(C[C@H](NC(=O)[C@H]2CC[C@H](CN)CC2)C(=O)Nc2cc(F)c3oc(=O)[nH]c3c2)cc1 [Example 99, 4′-{(2S)-2-({[trans-4-(Aminomethyl)cyclohexyl]carbonyl}amino)-3-[(7-fluoro-2-oxo-2,3-dihydro-1,3-benzoxazol-5-yl)amino]-3-oxopropyl}-2-methyl-N-[(3S)-2-oxopyrrolidin-3-yl]biphenyl-4-carboxamide hydrochloride] | 4.7 | 0.27
12 | Cl.NC[C@H]1CC[C@H](C(=O)N[C@@H](Cc2ccc(-c3ccc(C(=O)NCCN4CCCC4)cc3)cc2)C(=O)Nc2ccc(-c3nnn[nH]3)cc2)CC1 [Example 91, 4′-[(2S)-2-({[trans-4-(Aminomethyl)cyclohexyl]carbonyl}amino)-3-oxo-3-{[4-(1H-tetrazol-5-yl)phenyl]amino}propyl]-N-[2-(pyrrolidin-1-yl)ethyl]biphenyl-4-carboxamide hydrochloride] | 7.2 | 0.14
13 | Cc1cc(C(=O)NC2CCNCC2)ccc1-c1ccc(C[C@H](NC(=O)[C@H]2CC[C@H](CN)CC2)C(=O)Nc2ccc(-c3nc(C(F)(F)C(F)(F)C(N)=O)n[nH]3)cc2)cc1 [Example 127, 4′-[(2S)-2-({[trans-4-(Aminomethyl)cyclohexyl]carbonyl}amino)-3-({4-[3-(3-amino-1,1,2,2-tetrafluoro-3-oxopropyl)-1H-1,2,4-triazol-5-yl]phenyl}amino)-3-oxopropyl]-2-methyl-N-(piperidin-4-yl)biphenyl-4-carboxamide hydrochloride] | 1.5 | 0.14
14 | Cc1cc(C(=O)NC2CCNCC2)ccc1-c1ccc(C[C@H](NC(=O)[C@H]2CC[C@H](CN)CC2)C(=O)Nc2ccc(-c3nc(C(F)(F)C(F)(F)C(=O)N(C)C)n[nH]3)cc2)cc1 [Example 126, 4′-{(2S)-2-({[trans-4-(Aminomethyl)cyclohexyl]carbonyl}amino)-3-[(4-{3-[3-(dimethylamino)-1,1,2,2-tetrafluoro-3-oxopropyl]-1H-1,2,4-triazol-5-yl}phenyl)amino]-3-oxopropyl}-2-methyl-N-(piperidin-4-yl)biphenyl-4-carboxamide hydrochloride] | 1.6 | 0.14
15 | Cc1cc(C(=O)NC2CCN(C)CC2)ccc1-c1ccc(C[C@H](NC(=O)[C@H]2CC[C@H](CN)CC2)C(=O)Nc2ccc(-c3nc(C(F)(F)C(F)(F)CO)n[nH]3)cc2)cc1 [Example 109, 4′-[(2S)-2-({[trans-4-(Aminomethyl)cyclohexyl]carbonyl}amino)-3-oxo-3-({4-[3-(1,1,2,2-tetrafluoro-3-hydroxypropyl)-1H-1,2,4-triazol-5-yl]phenyl}amino)propyl]-2-methyl-N-(1-methylpiperidin-4-yl)biphenyl-4-carboxamide hydrochloride] | 3 | 0.11
16 | Cc1cc(C(=O)NC2CCC(N(C)C)CC2)ccc1-c1ccc(C[C@H](NC(=O)[C@H]2CC[C@H](CN)CC2)C(=O)Nc2ccc(-c3nc(C(F)(F)C(F)(F)C(F)(F)F)n[nH]3)cc2)cc1 (stereo partly drawn) [Example 87, 4′-[(2S)-2-({[trans-4-(Aminomethyl)cyclohexyl]carbonyl}amino)-3-({4-[3-(heptafluoropropyl)-1H-1,2,4-triazol-5-yl]phenyl}amino)-3-oxopropyl]-N-[4-(dimethylamino)cyclohexyl]-2-methylbiphenyl-4-carboxamide hydrochloride] | 2.8 | 0.47
17 | Cc1cc(C(=O)NC2CCN(C)CC2)ccc1-c1ccc(C[C@H](NC(=O)[C@H]2CC[C@H](CN)CC2)C(=O)Nc2ccc(-c3nn[nH]n3)cc2)cc1 [Example 42, 4′-[(2S)-2-({[trans-4-(Aminomethyl)cyclohexyl]carbonyl}amino)-3-oxo-3-{[4-(2H-tetrazol-5-yl)phenyl]amino}propyl]-2-methyl-N-(1-methylpiperidin-4-yl)biphenyl-4-carboxamide hydrochloride] | 3.6 | 0.1
